Article doi:10.1101/2023.07.11.548539v1, “A side-by-side comparison of peptide-delivered antisense antibiotics employing different nucleotide mimics” (bioRxiv, 2023)
Oligonucleotides are written 5' to 3', each unit as a sugar letter and its base; * is a phosphorothioate linkage, no mark a phosphodiester; rarer units and linkages stand in square brackets, end groups in braces. Plain capitals give the bases only. d = 2'-deoxy (DNA)

Test system: acpP::gfp reporter transcript
Test: In vitro translation (PURExpress) and anti-GFP western blot
Type: biochemical, Salmonella enterica
Parameters: key to Inhibition of translation in vitro: -: Effect strength is represented by additional (+) signs.; Effect strength is represented by additional (+) signs.; ++: Effect strength is represented by additional (+) signs.; +++: Effect strength is represented by additional (+) signs
Conditions: unconjugated ASO; for GFP Expression (%): RNA 100 nM, 2 h 37 °C, relative to water control; for Inhibition of translation in vitro: summary grade; for Inhibition of in vitro translation of acpP::gfp (in words): western blot of AcpP-GFP fusion protein
Source text: For the generation of target RNA::gfp fusion constructs, we used a previously established protocol ([31]) and the oligonucleotides JVO-19760/JVO-19761 (Supplementary Table 1) to amplify the genomic region spanning nucleotides –40 to + 51 relative to the translational start codon of acpP. The sense oligonucleotide was fused to a T7 promoter sequence for subsequent transcription of the final fusion construct in vitro. The antisense oligonucleotide contained a 30 nt overlapping region with gfp for subsequent fusion PCR with full length gfp (pXG-10; JVO-19762/JVO-19763) (Supplementary Table 1). The PCR products were purified with NucleoSpin Gel and PCR Clean-up (Macherey-Nagel) according to the manufacturer’s instructions and DNA concentration was quantified with a NanoDrop spectrophotometer (A260 nm).
PCR products were used for T7 RNA polymerase-driven transcription in vitro using the MEGAscript T7 kit (Ambion/Thermo Scientific), according to the manufacturer’s instructions and analogous to our previous publication ([31]). The concentration of the RNA solution was quantified with Qubit (Fisher Scientific) and the expected product size and RNA integrity was verified on a 6% PAA, 7 M urea gel.
For in vitro translation of target RNA::gfp fusion constructs, the PURExpress® In Vitro Protein Synthesis Kit (New England Biolabs, E6800L) was used as described previously ([31]). Briefly, the final volume of each in vitro translation reaction was set to 10 µL. 1µL of different concentrations of ASOs ranging from 10 µM to 0.625 µM were added to 1 µL of in vitro transcribed heat-denatured RNA (1µM) to adjust the final RNA concentration to 100 nM. The mixtures were pre-incubated at 37 °C for 5 min. Then 4 µL of Solution A and 3 µL of Solution B were added to the pre-annealed mixtures. After 2 h at 37 °C, protein samples were denatured in 1x reducing protein loading buffer (62.6 mM Tris–HCl pH 6.8, 2 % SDS, 0.1 mg/mL bromphenol blue, 15.4 mg/mL DTT, 10 % glycerol) at 95 °C for 5 min.
To visualise in vitro translated proteins, samples were separated on SDS-PAA (12 % PAA) gels, with subsequent semi-dry western blot transfer on polyvinylidene fluoride (PVDF) membranes. Membranes were blocked with 10% skim milk (in 1x TBS-T) for 1 h and probed with anti-GFP antibody (1:1,000; Sigma-Aldrich) in 5 % skim milk (in 1x TBS-T) overnight at 4 °C. After washing in 1x TBS-T and incubation with an HRP-conjugated secondary antibody (1:5,000; ThermoScientific) in 1x TBS-T, the membrane was incubated with developing solution kit (Amersham™ ECL Select™ Western Blotting Detection Reagent) and protein levels were detected using an ImageQuant LAS 500 (GE Healthcare Life Sciences). Images were processed and band intensities quantified using ImageJ. Protein bands were normalized to the water control.

| Substance | GFP Expression (%) (acpP-RNA : ASO 1 : 0.625) | GFP Expression (%) (acpP-RNA : ASO 1 : 1.25) | GFP Expression (%) (acpP-RNA : ASO 1 : 2.5) | GFP Expression (%) (acpP-RNA : ASO 1 : 5) | GFP Expression (%) (acpP-RNA : ASO 1 : 10) | Inhibition of translation in vitro | Inhibition of in vitro translation of acpP::gfp (in words) |
| --- | --- | --- | --- | --- | --- | --- | --- |
| RNA-OMe: 10mer 2'-methylated RNA antisense oligomer, sequence CTCATACTCT, targeting acpP (all 2'-O-methyl, backbone and T or U not given here) | 91.2% | 100.6% | 90.2% | 89.0% | 83.7% | + |  |
| LNA: 10mer 2'-4'-locked RNA antisense oligomer, sequence CTCATACTCT, targeting acpP (all LNA, backbone and methylation of C not given here) | 97.8% | 38.1% | 8.0% | 6.5% | 4.5% |  | substantially blocking in vitro translation of acpP::gfp at 1.25x molar excess |
| PMO: 10mer phosphorodiamidate morpholino antisense oligomer, sequence CTCATACTCT, targeting acpP (all phosphorodiamidate morpholino (PMO)) | 117.0% | 104.6% | 92.7% | 60.4% | 28.3% |  |  |
| DNA-PTO: 10mer phosphorothioate-modified DNA antisense oligomer, sequence CTCATACTCT, targeting acpP (antisense dC*dT*dC*dA*dT*dA*dC*dT*dC*dT) | 110.7% | 106.7% | 104.6% | 96.5% | 96.3% | - |  |
| RNA-MOE: 10mer 2'-methoxyethylated RNA antisense oligomer, sequence CTCATACTCT, targeting acpP (all 2'-MOE, backbone and methylation of C not given here) | 88.5% |  | 5.1% | 3.3% | 3.4% |  | substantially blocking in vitro translation of acpP::gfp at 1.25x molar excess |
| PNA: 10mer peptide nucleic acid antisense oligomer, sequence CTCATACTCT, targeting acpP (all peptide nucleic acid (PNA)) | 106.8% | 85.9% | 13.0% | 5.7% | 5.5% |  | substantially blocking in vitro translation of acpP::gfp at 1.25x molar excess |
| RNA-F: 10mer 2'-fluorinated RNA antisense oligomer, sequence CTCATACTCT, targeting acpP (all 2'-fluoro, backbone and T or U not given here) | 96.1% | 97.5% | 85.0% | 69.5% | 58.3% |  |  |
